Results on 16 molecules are retold here after patent US9073975B2, “Cyclic peptides, their preparation and their use as inhibitors of the platelet adhesion” (SANOFI, priority 2010, dated 2015).

Starred links: 1 amine or outer side, 2 acyl side, 3 side chain; linkers in the order of their positions; H or OH if unused. Positions of bridges follow the written chain, without caps; N, C: chain ends. Non-standard residues stand in square brackets, D forms with d. Residues, ends and D or L forms follow the SMILES beside them. NHCH2(1,3-C6H4)CH2CO = O=C(Cc1cccc(CN[*:1])c1)[*:2]; NH(CH2)9CO = O=C(CCCCCCCCCN[*:1])[*:2]; X3 = O=C(Cc1ccc(CN[*:1])cc1)[*:2]; Cha = N[C@@H](CC1CCCCC1)C(=O)O; Chg = N[C@H](C(=O)O)C1CCCCC1; Orn = NCCC[C@H](N)C(=O)O; Dab = NCC[C@H](N)C(=O)O; Nva = CCC[C@H](N)C(=O)O; Dap = NC[C@H](N)C(=O)O; Ac3c = NC1(C(=O)O)CC1; Aib = CC(C)(N)C(=O)O; Ahp = NCCCCCCC(=O)O; Ahx = NCCCCCC(=O)O; GABA = NCCCC(=O)O

The first assay deals with T1, recombinant human vWF-A1 domain (Homo sapiens, UniProt P07359).
T1 construct: whole blood drawn from voluntary donors; made in house; host or cells: E. coli (vWF-A1); washed platelets from human donor blood (GPIb, endogenous)
T1 sequence (P07359 17-652): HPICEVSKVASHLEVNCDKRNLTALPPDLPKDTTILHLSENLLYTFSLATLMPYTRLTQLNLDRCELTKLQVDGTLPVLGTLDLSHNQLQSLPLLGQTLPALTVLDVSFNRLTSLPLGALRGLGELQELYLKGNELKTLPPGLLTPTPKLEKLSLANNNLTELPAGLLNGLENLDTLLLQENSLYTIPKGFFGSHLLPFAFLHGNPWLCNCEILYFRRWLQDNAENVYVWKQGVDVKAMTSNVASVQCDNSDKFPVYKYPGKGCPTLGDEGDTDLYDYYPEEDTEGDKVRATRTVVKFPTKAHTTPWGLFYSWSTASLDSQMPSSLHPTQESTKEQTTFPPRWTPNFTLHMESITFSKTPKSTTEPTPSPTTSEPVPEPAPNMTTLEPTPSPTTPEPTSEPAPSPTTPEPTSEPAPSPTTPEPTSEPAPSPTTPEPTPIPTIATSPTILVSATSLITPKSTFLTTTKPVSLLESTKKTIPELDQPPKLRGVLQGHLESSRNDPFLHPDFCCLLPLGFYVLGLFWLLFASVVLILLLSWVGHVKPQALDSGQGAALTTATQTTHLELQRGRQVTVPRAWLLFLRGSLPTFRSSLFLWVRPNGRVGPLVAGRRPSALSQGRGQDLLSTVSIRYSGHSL
T1 sequence (P13224 26-206 partner): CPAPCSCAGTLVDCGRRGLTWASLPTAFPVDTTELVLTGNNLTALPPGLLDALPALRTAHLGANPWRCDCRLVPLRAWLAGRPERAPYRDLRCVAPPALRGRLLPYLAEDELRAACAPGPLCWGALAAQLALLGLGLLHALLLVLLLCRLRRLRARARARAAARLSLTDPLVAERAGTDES
T1 sequence (P14770 17-177 partner): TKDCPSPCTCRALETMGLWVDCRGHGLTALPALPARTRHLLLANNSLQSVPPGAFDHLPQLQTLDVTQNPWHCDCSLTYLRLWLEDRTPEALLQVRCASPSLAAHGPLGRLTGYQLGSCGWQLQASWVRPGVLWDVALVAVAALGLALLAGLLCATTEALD
In words: Static human platelet adhesion to recombinant human vWF-A1 domain. The format is cell-based.
Details: not given
The protocol:
The activity of compounds of the formula I can be shown by procedures known in the art, for example by determining their inhibition of the binding of platelets to vWF A1 domain in an appropriate assay. To this end, assay plates can be coated with vWF-A1 domain. […] Then fluorescence-labeled thrombocytes are added and incubated for 90 minutes. In a complex washing procedure all non-bound thrombocytes are removed and the plates are measured, for example in a laser-based reader Acumen Explorer or a bulk reader like Spectramax. […] To assess the effect of compounds on the interaction of the GPIb complex on platelets with vWF, an assay system was used measuring binding of human platelets to recombinant human vWF-A1 domain under static conditions in the presence and absence of the compounds. […] Platelet rich plasma was carefully removed, transferred to a fresh container and spun down for 15 min at 120 g. Platelet rich plasma was carefully transferred again to fresh containers, PGE1 (0.5 μg/ml, Sigma) was added and the suspension was allowed to rest for 5 min. This was followed by another centrifugation step for 15 min at 360 g. The supernatant was discarded and the cell pellets were carefully resuspended in tyrode buffer (NaCl, 137 mM (Sigma S-3014); KCl, 2.7 mM (Sigma P-9541); NaHCO3,12 mM ([…] 31437); NaH2PO4×2H2O, 0.36 mM (Merck 6345); […] After 5 min of resting the suspension was spun down for 15 min at 300 g. The supernatant was discarded and the pellets were carefully resuspended in TBS buffer (Tris-HCl, 50 mM (Fluka 93371); NaCl, 120 mM (Sigma S-3014); KCl, 2.7 mM (Sigma P-9541); CaCl2, 0.05 mM (Sigma C-3306); MgCl2×6 H2O, 2 mM (Sigma M-2670); […] The platelet count was adjusted to 2×10^5 cells/μl, and the suspensions from individual donors were pooled at this stage. The platelets were allowed to rest for 30 min at room temperature before calcein AM (2.5 μM per 2×10^5 cells/μl (Molecular Probes C-3099)) was added. This was followed by 15 min incubation in the dark. Cells were diluted to 5×10^4 cells/μl and ReoPro (3 μg/ml (Centocor B. V., Leiden, N L)) was added, followed by a 10 min incubation period in the dark before adding the platelets to the assay plates. 96 well plates (Greiner hb, black, clear bottom, F, 655097) were coated with human recombinant vWF-A1 domain (1.5 μg/well, AA 475-706, expressed in E. coli) in Tris buffer (pH 7.4; Tris-HCl, 25 mM; NaCl, 150 mM) and incubated for 1 h at room temperature. After washing the wells 3× with TBS, blocking buffer (TBS with 5% BSA) was added followed by an incubation for 1 h. The wells were washed again 3× with TBS before 200 μl TBS were added to each well, preventing them from drying out. TBS was flicked out and serial dilutions of the test compound were added. The washed and calcein AM labeled thrombocytes were added to the wells (2.5×10^6 cells/well). Following an adhesion period of 1.5 h in the dark the wells were washed 3× with TBS. Measurement of fluorescence per well was performed in a SpectraMax M5 reader (Molecular Devices). From the raw data % inhibition and IC50 values were calculated.
For `CSCC[C@@H]1NC(=O)[C@H](CCCNC(=N)N)NC(=O)[C@H](CCC(=O)O)NC(=O)[C@H]([C@@H](C)O)NC(=O)Cc2cccc(c2)CNC(=O)[C@H](CC(C)C)NC(=O)[C@H](CC(N)=O)NC(=O)[C@H](Cc2c[nH]cn2)NC(=O)[C@H](CC(C)C)NC(=O)[C@H](C)NC1=O` [Example 2, Cyclo[Leu-His-Asn-Leu-NH-X4-X3-X2-X1-CO-Thr-Glu-Arg-Met-Ala]] (cyclo(ALHNL[NHCH2(1,3-C6H4)CH2CO]TERM)), the IC50 (in general, the midpoint of a concentration-inhibition curve) was less than 1000 nM.
With `CSCC[C@@H]1NC(=O)[C@H](CCCNC(=N)N)NC(=O)[C@H](CCC(=O)O)NC(=O)[C@H]([C@@H](C)O)NC(=O)Cc2ccc(cc2)CNC(=O)[C@H](CC(C)C)NC(=O)[C@H](CC(N)=O)NC(=O)[C@H](Cc2c[nH]cn2)NC(=O)[C@H](CC(C)C)NC(=O)[C@H](C)NC1=O` [Example 3, Cyclo[Leu-His-Asn-Leu-NH-X4-X3-X2-X1-CO-Thr-Glu-Arg-Met-Ala]] (cyclo(ALHNL[X3]TERM)), the IC50 was 1000 to 10000 nM.

The assay is the same for the next values; noted with them: washed calcein AM labeled human platelets, static conditions, 1.5 h adhesion; read-out: Activity (IC50 for inhibition of the binding of platelets to vWF A1 domain).
Consider `CSCC[C@@H]1NC(=O)[C@H](CCCNC(=N)N)NC(=O)[C@H](CCC(=O)O)NC(=O)[C@H]([C@@H](C)O)NC(=O)[C@@H](NC(C)=O)CCCCNC(=O)[C@H](CC(C)C)NC(=O)[C@H](CC(N)=O)NC(=O)[C@H](Cc2c[nH]cn2)NC(=O)[C@H](CC(C)C)NC(=O)[C@H](C)NC1=O` [Example 5, Cyclo[Leu-His-Asn-Leu-NH-X4-X3-X2-X1-CO-Thr-Glu-Arg-Met-Ala]] (Ac-KTERMALHNL; lactam 1-C), for which the IC50 was 1000 to 10000 nM.
Still for that read-out and setting: then `CSCC[C@@H]1NC(=O)[C@H](CCCNC(=N)N)NC(=O)[C@H](CCC(=O)O)NC(=O)[C@H]([C@@H](C)O)NC(=O)CCCCCCNC(=O)[C@H](CC(C)C)NC(=O)[C@H](CC(N)=O)NC(=O)[C@H](Cc2c[nH]cn2)NC(=O)[C@H](C2CCCCC2)NC(=O)[C@H](C)NC1=O` [Example 20, Cyclo[Chg-His-Asn-Leu-NH—(CH2)6—CO-Thr-Glu-Arg-Met-Ala]] (cyclo(A[Chg]HNL[Ahp]TERM)), with 1000 to 10000 nM; and `CSCC[C@@H]1NC(=O)[C@H](CCCCN)NC(=O)[C@H](CCC(=O)O)NC(=O)[C@H]([C@@H](C)O)NC(=O)CCCCCCNC(=O)[C@H](CC(C)C)NC(=O)[C@H](CC(N)=O)NC(=O)[C@H](Cc2c[nH]cn2)NC(=O)[C@H](CC(C)C)NC(=O)[C@H](C)NC1=O` [Example 7, Cyclo[Leu-His-Asn-Leu-NH—(CH2)6—CO-Thr-Glu-Lys-Met-Ala]] (cyclo(ALHNL[Ahp]TEKM)), with 1000 to 10000 nM; and `CSCC[C@@H]1NC(=O)[C@H](CCCNC(=N)N)NC(=O)[C@H](CCC(=O)O)NC(=O)[C@H]([C@@H](C)O)NC(=O)C(C)(C)NC(=O)CCCNC(=O)[C@H](CC(C)C)NC(=O)[C@H](CC(N)=O)NC(=O)[C@H](Cc2c[nH]cn2)NC(=O)[C@H](CC(C)C)NC(=O)[C@H](C)NC1=O` [Example 53, Cyclo[Leu-His-Asn-Leu-NH—(CH2)3—CO-Aib-Thr-Glu-Arg-Met-Ala]] (cyclo(ALHNL[GABA][Aib]TERM)), with 1000 to 10000 nM.
`COC[C@@H]1NC(=O)[C@H](CCCNC(=N)N)NC(=O)[C@H](CCC(=O)O)NC(=O)[C@H]([C@@H](C)O)NC(=O)CCCCCCNC(=O)[C@H](CC(C)C)NC(=O)[C@H](CC(N)=O)NC(=O)[C@H](Cc2c[nH]cn2)NC(=O)[C@H](CC(C)C)NC(=O)[C@H](C)NC1=O` [Example 45, Cyclo[Leu-His-Asn-Leu-NH—(CH2)6—CO-Thr-Glu-Arg-Amp-Ala]] (cyclo(ALHNL[Ahp]TERS(Me))): the IC50 is less than 1000 nM.
On the same count and under the same terms, then `CSCC[C@@H]1NC(=O)[C@H](CCCNC(=N)N)NC(=O)[C@H](CCC(=O)O)NC(=O)[C@H]([C@@H](C)O)NC(=O)CCCCCNC(=O)[C@H](CC(C)C)NC(=O)[C@H](CC(N)=O)NC(=O)[C@H](Cc2c[nH]cn2)NC(=O)[C@H](CC(C)C)NC(=O)[C@H](C)NC1=O` [Example 11, Cyclo[Leu-His-Asn-Leu-NH—(CH2)5—CO-Thr-Glu-Arg-Met-Ala]] (cyclo(ALHNL[Ahx]TERM)), with 1000 to 10000 nM; and `CC(C)C[C@@H]1NC(=O)[C@H](C)NC(=O)[C@H](CC2CCCCC2)NC(=O)[C@H](CCCNC(=N)N)NC(=O)[C@H](CCC(=O)O)NC(=O)[C@H]([C@@H](C)O)NC(=O)CCCCCCNC(=O)[C@H](CC(C)C)NC(=O)[C@H](CC(N)=O)NC(=O)[C@H](Cc2c[nH]cn2)NC1=O` [Example 17, Cyclo[Leu-His-Asn-Leu-NH—(CH2)6—CO-Thr-Glu-Arg-Cha-Ala]] (cyclo(ALHNL[Ahp]TER[Cha])), with less than 1000 nM.
The same measure, in the same setting: then `CSCC[C@@H]1NC(=O)[C@H](CCCNC(=N)N)NC(=O)[C@H](CCC(=O)O)NC(=O)[C@H]([C@@H](C)O)NC(=O)CCCCCCNC(=O)[C@H](CC(C)C)NC(=O)[C@H](CC(N)=O)NC(=O)[C@H](CCCN)NC(=O)[C@H](CC(C)C)NC(=O)[C@H](C)NC1=O` [Example 34, Cyclo[Leu-Orn-Asn-Leu-NH—(CH2)6—CO-Thr-Glu-Arg-Met-Ala]] (cyclo(AL[Orn]NL[Ahp]TERM)), with 1000 to 10000 nM; and `CCC[C@@H]1NC(=O)[C@H](CCSC)NC(=O)[C@H](CCCNC(=N)N)NC(=O)[C@H](CCC(=O)O)NC(=O)[C@H]([C@@H](C)O)NC(=O)CCCCCCNC(=O)[C@H](CC(C)C)NC(=O)[C@H](CC(N)=O)NC(=O)[C@H](Cc2c[nH]cn2)NC(=O)[C@H](CC(C)C)NC1=O` [Example 31, Cyclo[Leu-His-Asn-Leu-NH—(CH2)6—CO-Thr-Glu-Arg-Met-Nva]] (cyclo([Ahp]TERM[Nva]LHNL)), with 1000 to 10000 nM; and `CSCC[C@@H]1NC(=O)[C@H](CCCNC(=N)N)NC(=O)[C@H](CCC(=O)O)NC(=O)[C@H]([C@@H](C)O)NC(=O)C2(CC2)NC(=O)CCCNC(=O)[C@H](CC(C)C)NC(=O)[C@H](CC(N)=O)NC(=O)[C@H](Cc2c[nH]cn2)NC(=O)[C@H](CC(C)C)NC(=O)[C@H](C)NC1=O` [Example 54, Cyclo[Leu-His-Asn-Leu-NH—(CH2)3—CO-Ac3-Thr-Glu-Arg-Met-Ala]] (cyclo(ALHNL[GABA][Ac3c]TERM)), with 1000 to 10000 nM.
Same read-out and setting: then `CSCC[C@@H]1NC(=O)[C@H](CN)NC(=O)[C@H](CCC(=O)O)NC(=O)[C@H]([C@@H](C)O)NC(=O)CCCCCCNC(=O)[C@H](CC(C)C)NC(=O)[C@H](CC(N)=O)NC(=O)[C@H](Cc2c[nH]cn2)NC(=O)[C@H](CC(C)C)NC(=O)[C@H](C)NC1=O` [Example 29, Cyclo[Leu-His-Asn-Leu-NH—(CH2)6—CO-Thr-Glu-Dpr-Met-Ala]] (cyclo(ALHNL[Ahp]TE[Dap]M)), with 1000 to 10000 nM; and `CSCC[C@@H]1NC(=O)[C@H](CCCNC(=N)N)NC(=O)[C@H](CCC(=O)O)NC(=O)[C@H](CCN)NC(=O)CCCCCCNC(=O)[C@H](CC(C)C)NC(=O)[C@H](CC(N)=O)NC(=O)[C@H](Cc2c[nH]cn2)NC(=O)[C@H](CC(C)C)NC(=O)[C@H](C)NC1=O` [Example 24, Cyclo[Leu-His-Asn-Leu-NH—(CH2)6—CO-Dbu-Glu-Arg-Met-Ala]] (cyclo(ALHNL[Ahp][Dab]ERM)), with less than 1000 nM.
With `CSCC[C@@H]1NC(=O)[C@H](CCCNC(=N)N)NC(=O)[C@H](CCC(=O)O)NC(=O)[C@H]([C@@H](C)O)NC(=O)CCCCCCCCCNC(=O)[C@H](CC(C)C)NC(=O)[C@H](CC(N)=O)NC(=O)[C@H](Cc2c[nH]cn2)NC(=O)[C@H](CC(C)C)NC(=O)[C@H](C)NC1=O` [Example 47, Cyclo[Leu-His-Asn-Leu-NH—(CH2)9—CO-Thr-Glu-Arg-Met-Ala]] (cyclo(ALHNL[NH(CH2)9CO]TERM)), the IC50 is 1000 to 10000 nM.
Same read-out and setting: then `CC[C@H](C)[C@@H]1NC(=O)[C@H](C)NC(=O)[C@H](CCSC)NC(=O)[C@H](CCCNC(=N)N)NC(=O)[C@H](CCC(=O)O)NC(=O)[C@H]([C@@H](C)O)NC(=O)CCCCCCNC(=O)[C@H](CC(C)C)NC(=O)[C@H](CC(N)=O)NC(=O)[C@H](Cc2c[nH]cn2)NC1=O` [Example 14, Cyclo[Ile-His-Asn-Leu-NH—(CH2)6—CO-Thr-Glu-Arg-Met-Ala]] (cyclo(AIHNL[Ahp]TERM)), with 1000 to 10000 nM.
